Test results as given in US6169065A, “Method for the activity of an enzyme” (Lever Brothers Company division of Conopco Company, priority 1997, dated 2001).

Columns and labels:
Type in all cases: biochemical
[1] = target: T1, Arthromyces ramosus peroxidase (Arthromyces ramosus, UniProt P28313); assay: Oxidation (bleaching) of Direct Green 26 by peroxidase plus enhancer; settings: 25° C., pH 9, 30 min
T1 construct: purchased Sigma P4794
T1 sequence (P28313 21-364): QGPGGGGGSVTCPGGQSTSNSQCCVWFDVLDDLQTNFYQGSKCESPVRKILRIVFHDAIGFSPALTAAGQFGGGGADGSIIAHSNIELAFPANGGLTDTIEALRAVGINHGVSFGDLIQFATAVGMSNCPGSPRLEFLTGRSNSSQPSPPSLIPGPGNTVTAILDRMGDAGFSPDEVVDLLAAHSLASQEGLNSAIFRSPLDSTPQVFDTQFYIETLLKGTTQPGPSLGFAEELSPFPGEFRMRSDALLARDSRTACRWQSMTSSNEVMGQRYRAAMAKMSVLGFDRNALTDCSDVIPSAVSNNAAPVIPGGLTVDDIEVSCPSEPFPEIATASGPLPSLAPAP
Description: The oxidation of Direct Green 26 (DG26) is monitored at 610 nm in a spectrophotometer. […] The reaction was carried out for 30 minutes at room temperature. The difference in absorbance between t=0 and t=30 min (Δ Abs in Table) is a measure of the enhancing activity of the system tested.
(§1) Examples 3-7 were repeated using 2-azaPTP, 4-azaPTP and PTP.

[2] = target: T1, Arthromyces ramosus peroxidase; assay: Oxidation (bleaching) of Reactive Black 5 by peroxidase plus enhancer; settings: for % bleaching / ΔAbs: 590 nm, 25° C., pH 9, 30 min
Description: The oxidation of Reactive Black 5 (RB5) is monitored at 590 nm in a spectrophotometer. […] The reaction was carried out for 30 minutes at room temperature. The difference in absorbance between t=0 and t=30 min (Δ Abs in Table) is a measure of the enhancing activity of the system tested.
ARP [6 u/ml], H2 O2 [250 μM], RB5 [60 μM], Enhancers [100 μM]
as §1

[3] = target: T1, Arthromyces ramosus peroxidase; assay: Oxidation (bleaching) of Direct Red 80 by peroxidase plus enhancer; settings: pH 9, 30 min
Description: The reagents are added, using a pipette, in the following order, to a 1-cm cuvette: aqueous carbonate buffer pH 9 (20 mM), DR80 (60 μM), enhancer (various concentrations) and peroxidase enzyme (Arthromyces ramosus peroxidase from Sigma, P4794); 60 units/ml). The reaction was carried out for 30 minutes at room temperature. The difference in absorbance between t=0 and t=30 min (Δ Abs in Table) is a measure of the enhancing activity of the system tested.
as §1

[4] = target: T2, laccase (Polyporus pinsitus) (Trametes villosa, UniProt Q99044); assay: Oxidation of Direct Green 26 by laccase plus enhancer; settings: 25° C., laccase 30 u/ml, enhancer 67 μM
T2 sequence (Q99044 22-520): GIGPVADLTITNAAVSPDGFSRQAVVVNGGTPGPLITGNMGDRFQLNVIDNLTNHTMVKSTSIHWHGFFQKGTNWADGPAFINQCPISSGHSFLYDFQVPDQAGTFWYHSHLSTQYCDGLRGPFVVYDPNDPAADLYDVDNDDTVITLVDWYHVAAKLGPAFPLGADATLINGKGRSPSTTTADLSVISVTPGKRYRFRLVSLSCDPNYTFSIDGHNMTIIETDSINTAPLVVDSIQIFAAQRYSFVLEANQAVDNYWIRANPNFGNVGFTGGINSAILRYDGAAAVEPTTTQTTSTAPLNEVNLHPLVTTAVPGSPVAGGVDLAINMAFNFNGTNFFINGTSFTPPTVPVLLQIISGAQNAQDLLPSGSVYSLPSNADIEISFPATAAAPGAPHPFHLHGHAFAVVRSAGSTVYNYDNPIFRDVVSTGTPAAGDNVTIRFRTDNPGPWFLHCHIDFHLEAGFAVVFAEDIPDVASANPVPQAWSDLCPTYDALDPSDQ
Description: The oxidation of Direct Green 26 (DG26) is monitored at 605 nm in a spectrophotometer. The reagents are added, using a pipette, in the following order, to a 1-cm cuvette: aqueous tris buffer pH 9 (20 mM) or sodium phosphate buffer pH 6.0 (20 mM), DG26 (67 μM), enhancer (67 μM), and laccase (Polyporus pinsitus, 30 units/ml). The reaction was carried for 3 hours at room temperature. The difference in absorbance between […] and t=3 h is a measure of the enhancing activity of the system tested. DG26 [605 nm]: 25° C., pH 6.0 and 9.0, 3 h. Laccase [30 u/ml], DG26 [67 μM], Enhancers [67 μM]. The values listed are the decrease in absorbance at 605 nm after 3 h.

[5] = target: T2, laccase (Polyporus pinsitus); assay: Oxidation of Reactive Black 5 by laccase plus enhancer; settings: for decrease in absorbance after 3 h: 25 C, laccase 30 u/ml, enhancer 67 μM
Description: The laccase activity is measured on a spectrophotometer with 2 mM ABTS in 20 mM sodium phosphate buffer pH 6.0 at 25° C. The oxidation of Reactive Black 5 (RB5) is monitored at 575 nm. The reagents are added, using a pipette, in the following order, to a 1-cm cuvette: aqueous tris buffer pH 9 (20 mM) or sodium phosphate buffer pH 6.0 (20 mM), RB5 (67 μM), enhancer (67 μM), and laccase (Polyporus pinsitus, 30 units/ml). The reaction was carried for 3 hours at room temperature. The difference in absorbance between t=0 and t=3 hours is a measure of the enhancing activity of the system tested. RB5 [575 nm]: 25 C, pH 6.0 and 9.0, 3 h. Laccase [30 u/ml], RB5 [67 μM], Enhancers [67 μM]. The values listed are the decrease in absorbance at […] after 3 h.

[6] = Example 8: DG26, 610 nm, ARP 10 u/ml, H2O2 100 μM, dye 60 μM, enhancer 200 μM
[7] = Example 8: RB5 60 μM, ARP 10 u/ml, H2O2 100 μM, enhancer 200 μM
[8] = Example 8: DR80, 530 nm, 25° C., ARP 10 u/ml, H2O2 100 μM, dye 60 μM, enhancer 100 μM
[9] = Example 8: DR80, 530 nm, 25° C., ARP 10 u/ml, H2O2 100 μM, dye 60 μM, enhancer 200 μM
[10] = DG26 60 μM, 610 nm, ARP 60 u/ml, H2O2 250 μM, enhancer 100 μM
[11] = RB5 60 μM, ARP 6 u/ml, H2O2 250 μM, enhancer 100 μM
[12] = DR80 60 μM, 500 nm, 25C, ARP 60 u/ml, H2O2 250 μM, enhancer 100 μM
[13] = DR80 60 μM, 500 nm, 25° C., ARP 60 u/ml, H2O2 250 μM, enhancer 10 μM
[14] = DR80 60 μM, 500 nm, 25° C., ARP 60 u/ml, H2O2 250 μM, enhancer 25 μM
[15] = DR80 60 μM, 500 nm, 25° C., ARP 60 u/ml, H2O2 250 μM, enhancer 50 μM

Row | Structure (SMILES) | % bleaching [1, 6] [%] | % bleaching [2, 7] [%] | % bleaching [3, 8] [%] | % bleaching [3, 9] [%] | % bleaching [1, 10] [%] | ΔAbs [1, 10] | % bleaching [2, 11] [%] | ΔAbs [2, 11] | decrease in absorbance at 605 nm after 3 h ([4]; pH 6.0, DG26 67 μM) | decrease in absorbance at 605 nm after 3 h ([4]; pH 9.0, DG26 67 μM) | % bleaching [3, 12] [%] | ΔAbs [3, 12] | % bleaching [3, 13] [%] | ΔAbs [3, 13] | % bleaching [3, 14] [%] | ΔAbs [3, 14] | % bleaching [3, 15] [%] | ΔAbs [3, 15] | decrease in absorbance after 3 h ([5]; pH 6.0, RB5 67 μM) | decrease in absorbance after 3 h ([5]; pH 9.0, RB5 67 μM) | also measured
1 | O=C(O)CCN1c2ccccc2Sc2cnccc21 [Enhancer 2-aza-PTP, 10-(pyrido[3,4-b][1,4]benzothiazyl)propionic acid] | 31 | 63 | 12 | 20 | – | – | – | – | – | – | – | – | – | – | – | – | – | – | – | – | –
2 | O=C(O)CCN1c2ccccc2Sc2cccnc21 [Enhancer 4-aza-PTP, 10-(pyrido[3,2-b][1,4]benzothiazyl)propionic acid] | 43 | 64 | 18 | 10 | 78 | 1.09 | 76 | 1.01 | 0.34 | 0.30 | 33 | 0.50 | 60 | 0.98 | 83 | 1.26 | 60 | 0.91 | 0.48 | 0.26 | enhancing capabilities with peroxidase ([2]; summary of Examples 3-5, especially at lower concentrations (Example 5)): excellent enhancing capabilities; enhancing capabilities with laccase ([5]; summary of Examples 6-7): excellent enhancing capabilities
3 | O=C(O)CCN1c2ccccc2Sc2ccccc21 [PTP, reference compound] | 29 | 35 | 6 | 2 | 65 | 0.92 | 80 | 1.03 | 0.14 | 0.37 | 48 | 0.78 | 20 | 0.33 | 40 | 0.66 | 50 | 0.82 | 0.32 | 0.24 | –
